Assay results: patent US20250101062A1, “ANTIMICROBIAL PEPTIDES” (Board of Regents of the University of Nebraska, priority 2023, published 2025)
Where no end group is shown, it is not given here.

Columns and labels:
E. coli E423-17 biofilms = test: Disruption of preformed biofilms in vitro (XTT); type: cell-based, Escherichia coli; settings: for effect on biofilms: 24 h preformed biofilm
Description: (§1) Effects of Peptides on Established Biofilms in Vitro. Bacteria (S. aureus USA300 LAC and E. coli E423-17) were grown in rich TSB media overnight. A second inoculation was made the next day to reach an exponential phase (OD600˜0.4). Microtiter plates (96 wells, Corning Costar Cat no. 3595), after aliquoting with 180 μL of the culture to each well, were incubated at 37° C. for 24 hours to form biofilms in rich TSB. Media were aspirated post incubation, and the attached biofilms were washed with 1×PBS to remove the planktonic bacteria. […] Biofilms treated with water served as the positive control, while media without bacterial inoculation served as the negative control. Live cells in the biofilms were quantitated using XTT as described above. Absorbance was read at 450 nm (only media with XTT containing wells served as the blank) using a ChroMate™ microtiter plate reader. Percentage biofilm growth for the peptide was plotted by assuming 100% biofilm growth in bacterial control alone. The data were represented as mean±SD; plots were generated using GraphPad prism 7, where * indicates p<0.05, **p<0.01, and ***P<0.001, and ****p<0.0001 (one-way analyses of variance).

MRSA USA300 [1] = test: Killing kinetics; type: cell-based, Staphylococcus aureus; settings: 2×MIC
Description: MRSA USA300 was grown to the exponential phase (OD600˜0.3) in MHB. The culture was diluted to OD600 0.001 (˜10^5 CFU/mL). One milliliter of bacterial suspension was then mixed with LL-37mini or daptomycin at 2×MIC and incubated at 37° C. After 15, 30, 60, 90, and 120 minutes of incubation, 50 μL was taken and serially diluted with 1×PBS. Then, 50 μL of the diluted suspension was plated on mannitol salt agar plates (NEOGEN, MI). The plates were incubated overnight at 37° C. for bacterial CFU determination the next day.
For bacterial killing kinetics study, MRSA USA300 and P. aeruginosa E411-17 was grown to the exponential phase (OD600˜0.3) in MHB. The culture was diluted to OD600 0.001 (˜10^5 CFU/mL). One milliliter of bacterial suspension was then mixed with the peptide, colistin or daptomycin at 4×MIC and incubated at 37° C. After 15, 30, 60, 90, and 120 minutes incubation, 50 μL was taken and serially diluted with 1×PBS. Then, 50 μL of the diluted suspension was plated on Mannitol Salt Agar (MRSA USA300) or Cetrimide Agar (P. aeruginosa E411-17) plates (NEOGEN, MI). The plates were incubated overnight at 37° C. for bacterial CFU count the next day.

MRSA USA300 [2] = test: microbe, parasite or virus in culture; type: cell-based, Staphylococcus aureus; settings: 17 passages at sub-MIC
Description: The experiment was conducted as described (Lakshmaiah et al. (2020) Proc. Natl. Acad. Sci., 117:19446-19454). Briefly, MRSA USA300 was grown to the exponential phase in MHB and diluted to OD600 0.001 (˜10^5 CFU/mL). Aliquots of 90 μL were added to a 96-well polystyrene microplate (Costar, Corning, NY) containing 10 μL of serially diluted LL-37mini, nafcillin, or daptomycin. After overnight incubation at 37° C., the plates were read at 600 nm using a ChroMate™ microplate reader (GMI, Ramsey, MN). Untreated bacterial culture and medium were included as untreated control and blank, respectively. The MIC is the lowest peptide concentration that inhibited the bacterial growth. The wells with sub-MIC levels of the peptides that retained growth approximately half the growth of the control wells were reinoculated in fresh MHB with sub-MIC concertation of peptides or antibiotics to attain exponential phase for MIC determination. In total, 17 passages of the bacterial cultures were conducted. A rapid increase in MIC is an indication of antibiotic resistance.

[3] = system: S. aureus USA300 LAC biofilms; test: Disruption of preformed biofilms in vitro (XTT); type: cell-based, Staphylococcus aureus
Description: as §1
LL-37 is known to inhibit bacterial biofilms (Overhage, et al. (2008) Infect. Immun., 76:4176-4182). However, it was unable to disrupt preformed MRSA biofilms in rich media (Mishra, et al. (2016) ACS Med. Chem. Lett., 7:117-121). Next, it was determined whether the diluted MHB medium could be useful to detect biofilm-disrupting activity for LL-37 against MRSA. An established procedure (Mishra, et al. (2016) ACS Med. Chem. Lett., 7:117-121; Duplantier, et al. (2013) Front. Immunol., 4:143) was used wherein biofilms were formed and washed as usual to remove planktonic cells. The biofilms were then treated with peptides in 12.5% MHB for 24 hours. Finally, live cells were quantified with XTT (ATCC). FIG. 2 compares the levels of live cells of MRSA in the preformed biofilms after 24 hour treatment. […] Of note is a similar pattern for both peptides in 12.5% MHB treated at various concentrations.
Bacteria (S. aureus USA300 LAC or P. aeruginosa E411-17) were grown up in TSB media overnight. A second inoculation was made the next day to reach an exponential phase (OD600˜0.4). Microtiter plates (96 wells, Corning Costar Cat No. 3595), after aliquoting with 180 μL of the culture to each well, were incubated at 37° C. for 24 hours to form biofilms in rich TSB. Media were aspirated post incubation and the attached biofilms were washed with 1×PBS to remove the planktonic bacteria. […] Biofilms treated with water served as the positive control while media without bacterial inoculation served as the negative control. Live cells in the biofilms were quantitated using the XTT as described above. Absorbance was read at 450 nm (only media with XTT containing wells served as the blank) using a ChroMate® microtiter plate reader. Percentage biofilm growth (the plot legend is antibiofilm activity) for the peptides was plotted by assuming 100% biofilm growth in bacterial control alone. The data were represented as mean±SD, plots were generated using GraphPad prism 7, where * indicates p<0.05, ** p<0.01, and ***P<0.001, and ****p<0.0001 (one-way analyses of variance).

| Compound | effect on live cells in biofilms (E. coli E423-17 biofilms; 24 hour preformed biofilms, 16 μM) | reduction of live bacteria (E. coli E423-17 biofilms; 24 hour preformed biofilms, treated at 8 μM) [%] | time at which CFU was not detected (killing) (MRSA USA300 [1]) [min] | resistance development (MRSA USA300 [2]) | effect on preformed biofilms ([3]; 48 or 72 hour preformed biofilms) | effect on preformed biofilms ([3]; 24 hours preformed biofilms, 32 μM) | time to kill (MRSA USA300 [1]) [h] | effect on biofilms (E. coli E423-17 biofilms; 12.5% MHB) | effect on biofilms (E. coli E423-17 biofilms; 100% MHB) | peptide concentration showing biofilm disruption ([3]; 24 h preformed biofilm, 12.5% MHB) [µM] | antibiofilm activity ([3]; 24 h preformed biofilm, 100% MHB) |
| --- | --- | --- | --- | --- | --- | --- | --- | --- | --- | --- | --- |
| RRWWRWWR-NH2 [W543] | almost eliminated | ~40 | 120 | essentially no change in the MIC values | Better disruptive effects than daptomycin | essentially eliminated | – | – | – | – | – |
| CCCCCCCCCC(=O)N[C@@H](Cc1c[nH]c2ccccc12)C(=O)N[C@H](CC(N)=O)C(=O)N[C@@H](CC(=O)O)C(=O)N[C@@H]1C(=O)NCC(=O)N[C@@H](CCCN)C(=O)N[C@@H](CC(=O)O)C(=O)N[C@H](C)C(=O)N[C@@H](CC(=O)O)C(=O)NCC(=O)N[C@H](CO)C(=O)N[C@@H]([C@H](C)CC(=O)O)C(=O)N[C@@H](CC(=O)c2ccccc2N)C(=O)O[C@@H]1C [Daptomycin] | – | – | – | did not develop resistance | – | – | 2 | – | – | – | – |
| CC[C@H](C)[C@H](NC(=O)[C@H](CCCCN)NC(=O)[C@H](CCC(=O)O)NC(=O)[C@H](CCCCN)NC(=O)[C@H](CO)NC(=O)[C@H](CCCCN)NC(=O)[C@H](CCCNC(=N)N)NC(=O)[C@H](Cc1ccccc1)NC(=O)[C@H](Cc1ccccc1)NC(=O)[C@H](CC(=O)O)NC(=O)CNC(=O)[C@H](CC(C)C)NC(=O)[C@@H](N)CC(C)C)C(=O)NCC(=O)N[C@@H](CCCCN)C(=O)N[C@@H](CCC(=O)O)C(=O)N[C@@H](Cc1ccccc1)C(=O)N[C@@H](CCCCN)C(=O)N[C@@H](CCCNC(=N)N)C(=O)N[C@H](C(=O)N[C@H](C(=O)N[C@@H](CCC(N)=O)C(=O)N[C@@H](CCCNC(=N)N)C(=O)N[C@H](C(=O)N[C@@H](CCCCN)C(=O)N[C@@H](CC(=O)O)C(=O)N[C@@H](Cc1ccccc1)C(=O)N[C@@H](CC(C)C)C(=O)N[C@@H](CCCNC(=N)N)C(=O)N[C@@H](CC(N)=O)C(=O)N[C@@H](CC(C)C)C(=O)N[C@H](C(=O)N1CCC[C@H]1C(=O)N[C@@H](CCCNC(=N)N)C(=O)N[C@H](C(=O)N[C@@H](CCC(=O)O)C(=O)N[C@@H](CO)C(=O)O)[C@@H](C)O)C(C)C)[C@@H](C)CC)C(C)C)[C@@H](C)CC [LL-37] | – | – | – | – | – | – | – | dose-dependent antibiofilm effect | subtle effect | 32 | essentially no antibiofilm activity |
